Measured values taken from patent US20130171067A1, “[…]-99m COMPLEX AS A TOOL FOR THE IN VIVO DIAGNOSIS OF CANCEROUS TUMOURS” (PIERRE FABRE MEDICAMENT, priority 2010, published 2013).
Counter-ions that a name gives are not always drawn.

Assays:
[1] = Biodistribution in healthy mice; conditions: C57BL/6 mice, intravenous, 30 min to 24 hours post-injection
[2] = test system: A549 cells; experiment: In vitro incorporation in cells with spermine competition (gamma counter); type: cell-based; conditions: 30 minutes incubation, 0.2 μM complex, increasing concentration of spermine, FIG. 1
Procedure: (§1) A549 and B16 cells were placed in culture in 24-well plates (2.10^5 cells/well). After 24 hours, the cells were incubated for 30 minutes with the complex having formula (II) at various concentrations or with 0.2 μM of complex having formula (II) optionally in the presence of an increasing concentration of spermine used for evaluating competition with the probe. After incubation, the plates were placed on ice and the cells were rinsed with cold 0.9% NaCl supplemented with 1 mM of spermidine. The cells received a treatment with trypsin. They were suspended in PBS. The activity of each well was measured using a gamma counter.

[3] = Plasmatic stability after intravenous injection (radio-HPLC of serum); type: in vivo, mice
Procedure: 14.8 MBq of complex having formula (II) were injected intravenously to healthy male C57BL/6 mice. 30 minutes, 1 h, 2 h, 3 h and 5 hours post-injection, blood samples on heparin were taken from the retro-orbital cavity. These samples were then centrifuged for 5 minutes to collect at least 100 μL of serum. 50 enabled exclusion-diffusion radio-HPLC on a TSK SW2000 column+7.8*300 mm 5μ pre-column (Tosoh bioscience) with a mobile phase (flow rate of 1. ml/min at ambient temperature) consisting of 0.9% NaCl (100%). Macaque albumin labelled with ^99mTc was used to test the albumin retention time. The remaining 50 μL of serum was used to perform reverse-phase radio-HPLC, after protein denaturation with acetonitrile, on an XBridge C8 4.6*250 mm 5μ column (Waters, USA) with a mobile phase (flow rate of 1 ml/min at ambient temperature) consisting of water (55%), acetonitrile (45%) and TFA (0.1%).

[4] = test system: B16 cells; experiment: In vitro incorporation in cells with spermine competition (gamma counter); type: cell-based, mouse; conditions: 30 minutes incubation, 0.2 μM complex, increasing concentration of spermine, FIG. 1
Procedure: as §1

[5] = test system: B16/F10 mouse melanoma cells; experiment: Tumour fixation, full-body scintigraphy of mice grafted with B16/F10 tumours (tumour-to-muscle ratio, spermine competition); type: in vivo; conditions: protocol of example 30, 1)
Procedure: 10 days post-grafting, the radiolabelled probe was injected into the mice. Imaging was performed according to the protocol described in example 24 above.
B16/F10 mouse melanoma cells (2.5.10^5 cells) were injected subcutaneously in the right back paw of male C57BL/6 mice. 10 days post-grafting, the complex having formula (II) (14.8 MBq) was injected into 18 mice, 400 μg of spermine having been previously injected into 8 of these mice. Full-body scintigraphic images were then produced 30 min and 2 hours post-injection. For this, the mice, anaesthetised with isoflurane gas, were imaged in the ventral decubitus position on a gamma-camera (γ Imager, BIOSPACE Mesures) with IRIS software (Ariès Nucléaire, France) with the following parameters: • Spectral window: 121-164 KeV • Acquisition time: 3 min • Grid: 256*256
For all the images, a region of interest was plotted around the tumour and another of the same size was defined on the muscle of the contralateral paw to determine the tumour-to-muscle ratio.
The study was conducted according to the protocol described in example 30, 1) above with other complexes having formula (II).

[6] = mouse, in vivo

For `NCCCNCCCCNCCCNC(=O)c1ccc(N[NH][Tc]234([O]CC(CO)(CO)[N]2CC(=O)[O]3)[O]C(=O)C[N]4C(CO)(CO)CO)nc1`, the Distribution in organs [1] was “distributed quasi-homogeneously throughout the organs”, the Persistence of fixation [1] was “only persists in the liver and kidneys” and the “Effect of spermine on incorporation of the complex” value [2] was “partially inhibits”. For the same compound, the “Proportion of injected complex eliminated” value ([3]; at 30 minutes after intravenous injection, healthy male C57BL/6 mice) was 38%, the “Trans-chelation of Technetium on plasma albumin” value ([3]; from 30 minutes after intravenous injection, exclusion-diffusion radio-HPLC) was “trans-chelated on the plasma albumin” and the “Complex stability in plasma” value ([3]; reverse-phase radio-HPLC of serum, 30 minutes to 5 hours post-injection) was “good complex stability”. For the same compound, the “Effect of spermine on incorporation of the complex” value [4] was “partially inhibits”, the Observations ([5]; B16/F10 tumour in C57BL/6 mice) was “Tumour fixation” and the “Risk of renal toxicity or side-effects due to dosimetry” value [6] was “no risk of renal toxicity or side-effects due to dosimetry”.
`NCCCCNCCCNC(=O)c1ccc(NN)nc1` (as salt: hydrochloride) [Example 6, N-[3-(4-amino-butylamino)-propyl]-6-hydrazino-nicotinamide] gave a melting point of 183 °C.
`NCCCNCCCCNCCCNC(=O)c1ccc(NNC(=O)C(F)(F)F)nc1` (as salt: hydrochloride) [Example 14, N-{3-[4-(3-amino-propylamino)-butylamino]-propyl}-6-[N′-(2,2,2-trifluoro-acetyl)-hydrazino]-nicotinamide] gave a melting point of 237.5 °C.
With `NCCCCNC(=O)c1ccc(NN)nc1` [Example 3, N-(4-Amino-butyl)-6-hydrazino-nicotinamide] the “Tumour-to-muscle ratio compared with the other compounds” value [5] was “lower than with the other compounds”.
For `NCCCCNCCCNC(=O)c1ccc(NN)nc1` [Example 6, N-[3-(4-amino-butylamino)-propyl]-6-hydrazino-nicotinamide], the “Tumour-to-muscle ratio compared with the other compounds” value [5] was “lower than with the other compounds”.
